Numbers after ± are expanded uncertainties.
Settings: Liquid; for mass density: 298.15 K, 101.33 kPa, Pycnometric method
[1] = Ebulliometric method (Recirculating still)

| mass density | Normal boiling temperature [1] | Normal boiling temperature | SMILES |
| --- | --- | --- | --- |
| 805.8 ± 0.7 kg/m3 | 117.70 ± 0.2 °C |  | CCCCO [butan-1-ol] |
| 785.2 ± 0.7 kg/m3 |  | 78.29 ± 0.2 °C | CCO [ethanol] |
| 799.6 ± 0.7 kg/m3 | 97.06 ± 0.2 °C |  | CCCO [propan-1-ol] |
| 780.8 ± 0.7 kg/m3 | 82.2 ± 0.2 °C |  | CC(C)O [propan-2-ol] |
